{"source": "patent US20150158931A1", "about": "“CYSTEINE PROTEASE CAPTURING AGENTS” (Stichting Het Nederlands Kanker Instituut, priority 2012, published 2015)", "key": {"[1]": {"test_system": "SENPs (GST-SENP1, SENP6, SENP7)", "test": "Labeling of SENPs with SUMO-PRG peptides (SDS-PAGE, fluorescence)", "format": "binding, human", "conditions": "for selective capturing / binding of SENPs: SENPs 1 μM, peptides 50 μM, 1 hour at RT; for binding to SENPs denatured prior to addition of the peptides: hydrolases denatured (1x LB, 5 min boiling) before peptide", "procedure": "The following experiment was performed to confirm that propargyl modified SUMO peptide (fragments) in accordance with the invention are selective capturing agent for the corresponding SENPs. The following SUMO peptides and SENPs were used in the Experiment. • SUMO peptides: • SUMO1=Cy5-PEG4-YQEQTG-PRG • SUMO2,3=Cy5-PEG4-FQQQTG-PRG • SENPs: • GST-SENP1 (43 kDa) • SENP6 (33.1 kDa) • SENP7 (37.2 kDa)\nThe SENPs (1 μM final concentration) were incubated with the SUMO-PRG peptides (50 μM final concentrations) for 1 hour at RT in buffer (20 mM Tris, 100 mM NaCl, 1 mM DTT, pH 7.5). Samples were denatured using 1× LB and boiled for 5 min. As a control, the SENPs were denatured (1×LB and 5 min. boiling) prior to treatment with the SUMO-PRG peptides. Samples were resolved by SDS-PAGE (12% polyacryl amide, MES buffer) and proteins were visualized by fluorescence (λex,em=625,680 nm) and CBB staining."}, "DUBs in cell lysates": {"test_system": "DUBs in cell lysates", "test": "Labeling of active DUBs in cell lysates at endogenous levels with fluorescent probe", "format": "binding", "conditions": "fluorescence"}, "[2]": {"test_system": "GFP-DUB fusions (catalytic cysteine to serine mutants)", "test": "Labeling of overexpressed GFP-DUB fusions in cell lysates", "format": "binding", "conditions": "transfected cells, lysate", "procedure": "For overexpression of GFP-tagged DUBs in cells, wild type USP14, Otub1, Otub2, Otud1 and POH1 were subcloned from pDEST-cDNA constructs (Addgene) into the eGFP-C1 vector system (Clontech) at XhoI/EcoRI restriction sites. Mutagenesis of catalytic Cysteines was performed by standard protocols (Stratagene) using the following primers (sites of mutagenesis underlined): USP14-C114S forward-CTTGGTAACACTTCTTACATGAATGCC, reverse-GGCATTCATGTAAGAAGTGTTACCAAG; Otub1-C9/S forward-CCTGACGGCAACTCTTTCTATCGGGC, reverse-GC CCGATAGAAAGAGTTGCCGTCAGG; Otub2-C51S forward-GG GATGGGAACTCCTTCTACAGGGCC, reverse-GGCCCTGTAGAAGGAGTTCCCATCCC. […] Reactions were stopped by the addition sample loading buffer supplemented with (β-mercaptoethanol, followed by boiling for 10 min. Samples were resolved on 4-12% MOPS NU-PAGE Gels (Invitrogen) and probe reactivity was assessed by TAMRA fluorescence scanning as described above. Gels were then transferred onto Nitrocellulose membranes and immunoblotted using anti-GFP serum produced in rabbit and mouse anti-β-actin (Sigma-Aldrich). Immunoblots were visualized using a Licor Odyssey. The following fluorescent secondary antibodies purchased from LICOR were used: anti-mouse-680, anti-rabbit-800."}, "UCH-L3 [3]": {"molecular_target": "T1, UCH-L3 (Homo sapiens, UniProt P15374)", "T1 construct": "made in house", "T1 sequence (P15374 1-230)": "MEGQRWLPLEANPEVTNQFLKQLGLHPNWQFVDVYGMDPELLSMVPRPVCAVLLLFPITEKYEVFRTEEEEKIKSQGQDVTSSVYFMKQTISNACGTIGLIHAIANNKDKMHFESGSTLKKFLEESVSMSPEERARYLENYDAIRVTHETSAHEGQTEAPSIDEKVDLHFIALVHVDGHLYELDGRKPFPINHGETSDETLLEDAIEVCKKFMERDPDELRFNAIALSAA", "test": "Reaction between Ubiquitin75-propargylamide and UCH-L3 (LC-MS, SDS-PAGE)", "format": "binding", "procedure": "Recombinant UCH-L3 was expressed and purified as described previously (C. N. Larsen, J. S. Price, K. D. Wilkinson, Biochemistry 35, 6735 (1996)).\n(§1) General procedure: DUB was dissolved in PBS with 5 mM dithiothreitol to a concentration of 1 mg/mL."}, "cysteine protease DUBs": {"test_system": "cysteine protease DUBs", "test": "Reaction between Ubiquitin75-propargylamide and DUBs, in vitro labeling", "format": "binding", "conditions": "including OTU-domain containing DUBs", "procedure": "as §1"}, "papain": {"molecular_target": "T2, papain (Carica papaya, UniProt P00784)", "T2 construct": "papain, a general cysteine protease obtained from Papaya Latex; from tissue; host or cells: papaya latex", "T2 sequence (P00784 134-345)": "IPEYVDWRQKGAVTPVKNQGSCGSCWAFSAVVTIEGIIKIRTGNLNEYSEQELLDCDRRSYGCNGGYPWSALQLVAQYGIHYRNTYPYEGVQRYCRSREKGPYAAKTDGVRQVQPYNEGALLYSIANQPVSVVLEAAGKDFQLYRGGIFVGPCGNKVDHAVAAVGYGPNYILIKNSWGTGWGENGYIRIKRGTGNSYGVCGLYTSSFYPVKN", "test": "In vitro labeling reaction of cysteine proteases: papain", "format": "binding", "procedure": "as §1"}, "SENP-1": {"test_system": "SENP-1", "test": "In vitro labeling reaction of cysteine proteases: SENP-1", "format": "binding", "procedure": "as §1"}, "ubiquitin ligase E1": {"molecular_target": "T3, ubiquitin ligase E1 (Homo sapiens, UniProt P22314)", "T3 sequence (P22314 1-1058)": "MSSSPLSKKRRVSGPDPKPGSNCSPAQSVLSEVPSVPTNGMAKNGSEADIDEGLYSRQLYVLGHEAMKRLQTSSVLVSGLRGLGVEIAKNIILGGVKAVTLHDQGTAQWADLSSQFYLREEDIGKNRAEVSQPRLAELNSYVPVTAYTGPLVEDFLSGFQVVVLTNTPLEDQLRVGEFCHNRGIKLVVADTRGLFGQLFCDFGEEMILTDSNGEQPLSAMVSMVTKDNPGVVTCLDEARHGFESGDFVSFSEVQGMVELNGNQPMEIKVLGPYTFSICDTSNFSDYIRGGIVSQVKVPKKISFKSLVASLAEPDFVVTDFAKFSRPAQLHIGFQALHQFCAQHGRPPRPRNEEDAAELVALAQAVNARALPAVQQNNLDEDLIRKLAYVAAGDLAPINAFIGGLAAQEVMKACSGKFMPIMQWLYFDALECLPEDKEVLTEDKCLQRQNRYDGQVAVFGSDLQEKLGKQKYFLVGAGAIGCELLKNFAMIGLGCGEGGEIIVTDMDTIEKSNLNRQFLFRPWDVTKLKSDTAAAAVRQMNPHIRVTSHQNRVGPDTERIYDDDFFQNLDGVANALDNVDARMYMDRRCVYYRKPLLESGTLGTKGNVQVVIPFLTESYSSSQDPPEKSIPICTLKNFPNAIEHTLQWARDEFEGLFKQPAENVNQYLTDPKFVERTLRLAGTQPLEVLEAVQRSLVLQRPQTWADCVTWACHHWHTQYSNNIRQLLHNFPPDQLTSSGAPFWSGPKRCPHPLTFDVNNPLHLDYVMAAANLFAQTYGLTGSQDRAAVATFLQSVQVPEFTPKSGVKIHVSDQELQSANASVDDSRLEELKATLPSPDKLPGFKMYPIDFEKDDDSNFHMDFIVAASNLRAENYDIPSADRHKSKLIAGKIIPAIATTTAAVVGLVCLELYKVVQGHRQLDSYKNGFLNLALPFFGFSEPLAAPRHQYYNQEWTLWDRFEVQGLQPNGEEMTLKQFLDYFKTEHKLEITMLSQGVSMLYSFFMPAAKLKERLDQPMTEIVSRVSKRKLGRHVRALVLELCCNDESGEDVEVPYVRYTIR", "test": "In vitro labeling reaction: ubiquitin ligase E1", "format": "binding", "procedure": "as §1"}, "UCH-L3 [4]": {"molecular_target": "T1, UCH-L3", "test": "Acid cleavage of the complex between Ubiquitin75-propargylamide and the DUBs", "conditions": "incubation with various acids", "procedure": "To a solution of Ubiquitin75-propargylamide-UCH-L3 complex in PBS (3 mg/mL; 10 μL) was added a 3-fold concentrated solution of the tested acid. The reactions were incubated overnight and analyzed by SDS-PAGE chromatography and/or mass spectrometry."}, "UCH-L3 [5]": {"molecular_target": "T1, UCH-L3", "test": "Thioradical-mediated cleavage of Ub-Prg-UCH-L3 complex", "conditions": "ethane thiol 50 mM, VA-044 10 mM, three hours", "procedure": "The reaction was incubated for 30 minutes at 37° C. and was buffer exchanged into water by PD-10 column (GE Healthcare) and lyophilized overnight. The resulting white powder was dissolved in PBS (100 μL) and to 90 μL of this solution 10 μL of ethanethiol was added (143 μmole) and VA-044 to a final concentration of 10 mM. The reaction was shaken at 37° C. for three hours prior to LC-MS analysis.\nTo a solution of Ub-prg-UCH-L3 complex in PBS (0.5 mg/mL; 80 μL) various amounts of thiol were added to the final concentrations indicated. Radical initiator VA-044 was added at the concentrations indicated and the reaction was shaken at 37° C. for 3 hours after which the reactions were analysed by non-reducing SDS-PAGE."}}, "note": "Primed or numbered codes have the meaning given here. PEG4′ = not defined here; PRG = propargyl", "data": [{"substance": "Cy5-PEG4-YQEQTG-PRG ({Cy5-PEG4′}-YQEQTG-{PRG}) [SUMO1, truncated fluorescent C-terminal propargylated SUMO peptide, C-terminus of SUMO-1]", "values": [{"measurement": "selective capturing / binding of SENPs", "setting": "[1]", "value": "selective binding"}, {"measurement": "binding to SENPs denatured prior to addition of the peptides", "setting": "[1]", "value": "completely abolishes binding"}]}, {"substance": "TMR-Ub-Prg: N-terminally tetramethylrhodamine (TMR) labeled analogue of Ub-Prg", "values": [{"measurement": "labeling of active DUBs in lysates at endogenous levels", "setting": "DUBs in cell lysates", "value": "clear labeling results"}, {"measurement": "reaction with DUB mutants, active site cysteine mutated to serine", "setting": "[2]", "value": "failed to react"}]}, {"substance": "Ubiquitin75-propargylamide [Ub-Prg]", "values": [{"measurement": "bond formation with UCH-L3, stable to denaturing LC-MS and denaturing SDS-PAGE", "setting": "UCH-L3 [3]; 1.2 molar equivalents, 37 °C, 30 minutes", "value": "forms a bond with UCH-L3"}, {"measurement": "reactivity with UCH-L3 after pre-treatment with iodoacetamide", "setting": "UCH-L3 [3]; UCH-L3 pre-treated with general alkylating agent iodoacetamide", "value": "abolished all reactivity"}, {"measurement": "complex formation with radical scavenger", "setting": "UCH-L3 [3]; presence of excess radical scavenger", "value": "complex formation"}, {"measurement": "reaction in vitro with cysteine protease DUBs", "setting": "cysteine protease DUBs", "value": "react in vitro with all cysteine protease DUBs tested"}, {"measurement": "reaction in vitro with cysteine protease DUBs", "setting": "cysteine protease DUBs; listed as Ubiquitin-propargyl", "value": "reacts with all classes of cysteine deubiquitinating enzymes"}, {"measurement": "reactivity towards papain", "setting": "papain", "value": "unreactive"}, {"measurement": "reactivity towards SENP-1", "setting": "SENP-1", "value": "unreactive"}, {"measurement": "reactivity towards ubiquitin ligase E1", "setting": "ubiquitin ligase E1", "value": "no reactivity"}, {"measurement": "reaction with DUB mutants, active site cysteine mutated to serine", "setting": "[2]", "value": "abolished binding"}, {"measurement": "acid lability of complex with UCH-L3", "setting": "UCH-L3 [4]", "value": "cleavage of the complex"}, {"measurement": "thioradical treatment of purified complex with UCH-L3", "setting": "UCH-L3 [5]", "value": "cleavage was observed"}]}, {"substance": "Cy5-PEG4-FQQQTG-PRG ({Cy5-PEG4′}-FQQQTG-{PRG}) [SUMO2,3, truncated fluorescent C-terminal propargylated SUMO peptide, C-termini of SUMO-2 and SUMO-3]", "values": [{"measurement": "selective capturing / binding of SENPs", "setting": "[1]", "value": "selective binding"}, {"measurement": "binding to SENPs denatured prior to addition of the peptides", "setting": "[1]", "value": "completely abolishes binding"}]}]}
